# In ChEMBL document CHEMBL1136110, “2,3,4,5-tetrahydro- and 2,3,4,5,11,11a-hexahydro-1H-[1,4]diazepino[1,7-a]indoles: new templates for 5-HT(2C) agonists” (Bioorg Med Chem Lett, 2003):
# Experiments:
# [1] = biological target: Serotonin 2 receptors; 5-HT2a & 5-HT2c (Homo sapiens) (UniProt P28223+P28335); experiment: Selectivity ratio of binding affinity of 5-hydroxytryptamine 2A receptor to that of 5-hydroxytryptamine 2C receptor.; format: protein assay
# [2] = biological target: T1, 5-hydroxytryptamine receptor 2C (Homo sapiens) (UniProt P28335); experiment: Intrinsic efficacy against 5-hydroxytryptamine 2C receptor
# T1 sequence (whole entry): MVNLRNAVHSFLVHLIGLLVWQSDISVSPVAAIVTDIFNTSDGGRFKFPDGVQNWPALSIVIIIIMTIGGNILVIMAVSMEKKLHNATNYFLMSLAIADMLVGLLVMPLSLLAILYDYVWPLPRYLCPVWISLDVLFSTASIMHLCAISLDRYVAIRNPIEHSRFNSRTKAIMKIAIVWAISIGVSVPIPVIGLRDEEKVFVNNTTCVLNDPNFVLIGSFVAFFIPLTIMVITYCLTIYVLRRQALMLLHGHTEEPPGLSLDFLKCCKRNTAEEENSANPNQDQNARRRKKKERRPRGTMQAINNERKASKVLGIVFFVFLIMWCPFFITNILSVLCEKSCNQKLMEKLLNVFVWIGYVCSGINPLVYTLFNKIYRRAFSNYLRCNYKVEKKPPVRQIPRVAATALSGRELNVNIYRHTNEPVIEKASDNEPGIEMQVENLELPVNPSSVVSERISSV
# [3] = biological target: 5-hydroxytryptamine receptor 2A (Homo sapiens, UniProt P28223); experiment: Binding affinity against 5-hydroxytryptamine 2A receptor using [125I]DOI radioligand.
# [4] = biological target: T2, 5-hydroxytryptamine receptor 2C (Homo sapiens, UniProt P28335); experiment: Binding affinity against 5-hydroxytryptamine 2C receptor using [125I]DOI radioligand.
# T2 sequence (P28335 whole entry): T1 sequence (whole entry)
# Mus musculus [5] = experiment: Anxiolytic activity (latency to fight) in mice after administration (3 mg/kg) using shock-induced aggression assay; format: functional
# Mus musculus [6] = experiment: Ataxia (time on rotaing rod) in mice after administration (30 mg/kg) using standard Rotarod assay; format: functional
# Mus musculus [7] = experiment: Anxiolytic activity (latency to fight) in mice after administration (30 mg/kg) using shock-induced aggression assay; format: functional
# Mus musculus [8] = experiment: Ataxia (time on rotaing rod) in mice after administration (3 mg/kg) using standard Rotarod assay; format: functional
# Mus musculus [9] = experiment: Anxiolytic activity (latency to fight) in mice after administration (0.3 mg/kg) using shock-induced aggression assay; format: functional
# Mus musculus [10] = experiment: Ataxia (time on rotaing rod) in mice after administration (0.3 mg/kg) using standard Rotarod assay; format: functional
# Mus musculus [11] = experiment: Anxiolytic activity (latency to fight) in mice after administration (3.0 mg/kg) using shock-induced aggression assay; format: functional
# [12] = biological target: T2, 5-hydroxytryptamine receptor 2C; experiment: Binding affinity of compound towards 5-hydroxytryptamine 2C receptor
# Chain of 5-hydroxytryptamine receptor 2A (P28223 whole entry): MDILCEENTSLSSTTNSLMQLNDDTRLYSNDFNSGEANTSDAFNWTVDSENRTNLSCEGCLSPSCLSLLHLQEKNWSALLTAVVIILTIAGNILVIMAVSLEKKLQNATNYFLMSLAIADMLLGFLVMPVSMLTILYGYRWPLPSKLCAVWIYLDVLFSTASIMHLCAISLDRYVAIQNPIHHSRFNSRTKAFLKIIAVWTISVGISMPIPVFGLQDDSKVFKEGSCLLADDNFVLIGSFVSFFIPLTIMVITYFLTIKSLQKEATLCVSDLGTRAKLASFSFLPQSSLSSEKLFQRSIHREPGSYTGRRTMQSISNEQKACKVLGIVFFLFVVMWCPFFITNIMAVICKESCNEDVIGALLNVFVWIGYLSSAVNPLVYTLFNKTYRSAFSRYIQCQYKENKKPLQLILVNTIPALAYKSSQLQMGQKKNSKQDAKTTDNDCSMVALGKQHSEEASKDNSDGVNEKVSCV
# Chain of Serotonin 2 receptors; 5-HT2a & 5-HT2c (Homo sapiens) (P28223 whole entry, looked up, one chain of several): as the sequence (P28223 whole entry) above
SMILES,Selectivity ratio [1],Ki [3] [nM],Ki [4] [nM],also measured
"CCOc1ccccc1-c1cccc2c1N1CCNCCC1C2 (single isomer, unassigned; (+)) [listing 1 of 2 here]",4.45,,,
c1cc2c3c(c1)c1c(n3CCO2)CCNCC1,,4.1,4.3,Intrinsic efficacy [2]: 105%
Cc1ccccc1-c1cccc2c1N1CCNCCC1C2 (stereo in doubt; (+)) [listing 1 of 2 here],,191,30,
"FC(F)(F)c1ccccc1-c1cccc2c1N1CCNCCC1C2 (single isomer, unassigned; (+)) [listing 1 of 2 here]",1.81,,,
Clc1ccc(Cl)c(-c2cc(Cl)cc3c2N2CCNCCC2C3)c1 (configuration not stated),0.44,70,160,
Fc1ccc(-c2cc(Cl)cc3c2N2CCNCCC2C3)cc1 (configuration not stated),0.47,146,310,
CCOc1ccccc1-c1cc(Cl)cc2cc3n(c12)CCNCC3,,32,112,
Fc1ccccc1-c1cc(Cl)cc2c1N1CCNCCC1C2 (configuration not stated),0.63,141,223,
CCOc1cccc(-c2cc(Cl)cc3c2N2CCNCCC2C3)c1 (configuration not stated),0.49,233,472,
CCOc1ccccc1-c1cccc2c1N1CCNCCC1C2 (stereo in doubt; 20a),,440,110,
c1ccc2c(c1)cc1n2CCNCC1,3.8,18,4.8,Latency (Mus musculus [5]): 12.8 s; Latency (Mus musculus [6]): 87.6 s; Latency (Mus musculus [7]): 27 s; Intrinsic efficacy [2]: 80%; Latency (Mus musculus [8]): 102 s
Cn1c2c(c3ccccc31)CCNCC2 [PNU-22394],,19,19,Intrinsic efficacy [2]: 83%
Clc1ccc(-c2cc(Cl)cc3c2N2CCNCCC2C3)c(Cl)c1 (configuration not stated),1.1,426,386,
O=Cc1c2n(c3ccccc13)CCNCC2,2.4,29,12,
c1ccc2c(c1)CC1CCNCCN21 (configuration not stated),,805,721,
O=C(c1c2n(c3ccccc13)CCNCC2)C(F)(F)F,0.7,40,54,
"CCOc1ccccc1-c1cc(Cl)cc2c1N1CCNCCC1C2 (single isomer, unassigned; (+)) [listing 1 of 2 here]",,116,32,
Cc1ccccc1-c1cccc2c1N1CCNCCC1C2 (stereo in doubt; (+)) [listing 2 of 2 here],6.37,,,
"CCOc1ccccc1-c1cccc2c1N1CCNCCC1C2 (single isomer, unassigned; (-)) [listing 1 of 2 here]",5,,,
Cc1ccccc1-c1cccc2c1N1CCNCCC1C2 (stereo in doubt; (-)) [listing 1 of 2 here],,136,39,
"FC(F)(F)c1ccccc1-c1cccc2c1N1CCNCCC1C2 (single isomer, unassigned; (-)) [listing 1 of 2 here]",,45,14,
"CCOc1ccccc1-c1cccc2c1N1CCNCCC1C2 (single isomer, unassigned; (+)) [listing 2 of 2 here]",,458,103,
Cc1nnc2n1-c1ccc(Cl)cc1C(c1ccccc1)=NC2 [ALPRAZOLAM],,,,Latency (Mus musculus [9]): 11.9 s; Latency (Mus musculus [10]): 74.2 s; Latency (Mus musculus [8]): 14.5 s; Latency (Mus musculus [11]): 35.2 s
Clc1c2n(c3ccccc13)CCNCC2,1.4,6.5,4.7,

SMILES,Selectivity ratio [1],Ki [3] [nM],Ki [4] [nM],also measured
CCOc1ccccc1-c1cc(Cl)cc2c1N1CCNCCC1C2 (stereo in doubt) [listing 1 of 2 here],,354,178,
c1ccc2c3c([nH]c2c1)CCNCC3,,10,6.1,Intrinsic efficacy [2]: 66%
"FC(F)(F)c1ccccc1-c1cccc2c1N1CCNCCC1C2 (single isomer, unassigned; (+)) [listing 2 of 2 here]",,107,59,
C[C@H](N)Cn1ccc2ccc(F)cc21,,,,Ki [12]: 4 nM
Cc1ccccc1-c1cccc2c1N1CCNCCC1C2 (stereo in doubt; (-)) [listing 2 of 2 here],3.45,,,
CCN1CCc2cc3ccccc3n2CC1,,30,38,Intrinsic efficacy [2]: 66%
NC(=O)C(=O)c1c2n(c3ccccc13)CCNCC2,2.3,316,136,
COc1ccc(Cl)cc1-c1cc(Cl)cc2c1N1CCNCCC1C2 (configuration not stated),0.95,756,793,
CCOc1ccccc1-c1cc(Cl)cc2c1N1CCNCCC1C2 (stereo in doubt) [listing 2 of 2 here],1.99,,,
NC(=O)c1c2n(c3ccccc13)CCNCC2,0.6,46,74,
CCOc1ccccc1-c1cc(Cl)cc2c1N1CCNCCC1C2 (stereo in doubt; 22a),,218,54,
CCOc1ccccc1-c1ccc2c(c1)CC1CCNCCN21 (configuration not stated),,> 10000,4810,
"FC(F)(F)c1ccccc1-c1cccc2c1N1CCNCCC1C2 (single isomer, unassigned; (-)) [listing 2 of 2 here]",3.21,,,
N#Cc1c2n(c3ccccc13)CCNCC2,1,83,85,
CCOc1ccc(-c2cc(Cl)cc3c2N2CCNCCC2C3)cc1 (configuration not stated),0.69,182,265,
Clc1ccccc1-c1cccc2c1N1CCNCCC1C2 (configuration not stated),3.57,82,23,
"CCOc1ccccc1-c1cccc2c1N1CCNCCC1C2 (single isomer, unassigned; (-)) [listing 2 of 2 here]",,980,196,
CN1CCc2cc3ccccc3n2CC1,,28,13,Intrinsic efficacy [2]: 49%
Cc1ccccc1-c1cc(Cl)cc2c1N1CCNCCC1C2 (configuration not stated),2.05,88,43,
CCOc1ccccc1-c1ccc2c(c1)N1CCNCCC1C2 (configuration not stated),,1580,932,
"CCOc1ccccc1-c1cc(Cl)cc2c1N1CCNCCC1C2 (single isomer, unassigned; (+)) [listing 2 of 2 here]",3.63,,,
CCCN1CCc2cc3ccccc3n2CC1,,56,64,
Clc1cc2c(c(-c3ccccc3Cl)c1)N1CCNCCC1C2 (configuration not stated),1.79,102,57,
Cc1c2n(c3ccccc13)CCNCC2,1.8,12,6.8,
